# From PMC12775819, “Optimizing PSMA-617-based inhibitors through charged linker modifications: Insights into structure-activity relationships” (Theranostics, 2026)
# Non-standard residues stand in square brackets, D forms with d. Residues, ends and D or L forms follow the SMILES beside them. *: point of attachment. DOTA = O=C(O)CN1CCN(CC(=O)O)CCN(CC(=O)*)CCN(CC(=O)O)CC1; EuK = O=C(O)CC[C@H](NC(=O)N[C@@H](CCCCN*)C(=O)O)C(=O)O; 2Nal = N[C@@H](Cc1ccc2ccccc2c1)C(=O)O; Trx = NC[C@H]1CC[C@H](C(=O)O)CC1
# Legend:
# in vivo = settings: male, BALB/c nu/nu, mouse, iv, 500 pmol, total radioactivity
# [1] = tested on: PSMA-positive LNCaP cells; experiment: Surface binding and internalization of 68Ga-labeled compounds; type: cell-based, human; settings: for Internalization Block / Surface Binding Block / Internalization / Surface Binding: 30 nM, 45 min, 37 °C; for Internalization Block / Surface Binding Block: blocked with 2-PMPA 500 µM; for Internalization / Surface Binding: unblocked; for Specific Internalization / Specific Surface Binding: difference of unblocked and blocked values
# Experimental: The PSMA-positive human cell line LNCaP (human lymph node carcinoma of the prostate; ATCC CRL-1740) was cultivated adherently at 37 °C and humidified 5% CO2 with RPMI-1640 (Thermo Fisher Scientific, Germany) supplemented with 10% fetal bovine serum (Sigma-Aldrich, Germany), 1% sodium pyruvate (Life Technologies, Germany) and 1% penicillin/[…] (Thermo Fisher Scientific, Germany). A mixture of trypsin/ethylenediaminetetraacetic acid (0.05% / 0.02%; Thermo Fisher Scientific, Germany) was used for cell harvesting (last authentication: April 2024).
# Internalization assays were performed on poly-L-lysine coated 24-well cell culture plates. The day before the experiment, LNCaP cells (10^5 cells/well) were harvested and seeded to the wells. The cells were incubated with the ^68Ga-labeled compounds (250 µl, 30 nM, diluted in RPMI medium) for 45 min at 37 °C. […] The medium was then removed and the cells washed with ice-cold PBS buffer (3 × 1 ml). To remove surface bound compounds, ice-cold glycine buffer (2 × 0.5 ml, 50 mM, pH 2.8) was added to the wells and collected after 5 min in a combined fraction. After washing once with PBS (1 ml), NaOH (0.5 ml, 0.3 M) was added to the cells for lysation. Collected surface-bound, internalized fractions and standards from the stock solutions (25 µl) were measured in a γ-counter. Data was normalized and presented as percentage of the initially added radioactivity bound to 10^5 cells [%IA/10^5 cells].
# [2] = Partition coefficient (logD), n-octanol/PBS pH 7.4; type: physicochemical; settings: 68Ga-labeled compounds, mean ± SD, read-out: Partition Coefficient [logDoctanol/PBS]
# Experimental: To determine the lipophilicity expressed as distribution coefficient (logD), a two-phase system of n-octanol (500 µl) and phosphate buffered saline (PBS) (490 µl) at pH 7.4 was used (n = 4). Compounds were radiolabeled with [^68Ga]Ga^3+ and the mixture diluted to a concentration of 0.25 µM in PBS. 10 µl of the 0.25 µM dilution were added to the n-octanol / PBS mixture. After extensive mixing, the 2-phase system was centrifuged for 10 min at 14,000 rpm and 4 °C. Two samples from each phase (100 µl) were taken and measured in a γ-gamma counter (PerkinElmer, Waltham, USA). […] The data is presented as the mean value with the standard deviation (SD).
SUV at 1 h (in vivo; SUV kidneys) [SUV],SUV at 2 h (in vivo; SUV kidneys) [SUV],SUV at 1 h (in vivo; SUV muscle) [SUV],SUV at 2 h (in vivo; SUV muscle) [SUV],SUV at 1 h (in vivo; SUV tumor) [SUV],SUV at 2 h (in vivo; SUV tumor) [SUV],logD [2],tissue to tissue ratio at 1 h (in vivo),tissue to tissue ratio at 2 h (in vivo),Compound,Internalization Block [1],Surface Binding Block [1],Internalization [1],Surface Binding [1],Specific Internalization [1],Specific Surface Binding [1]
1.71 ± 0.2,1.32 ± 0.15,0.09 ± 0.01,0.08 ± 0.02,0.43 ± 0.06,0.3 ± 0.11,-3.5 ± 0.2,,,"O=C(O)CC[C@H](NC(=O)N[C@@H](CCCCNC(=O)[C@H](Cc1c[nH]cn1)NC(=O)[C@H](CCC(=O)O)NC(=O)[C@H](Cc1c[nH]cn1)NC(=O)[C@H](CCC(=O)O)NC(=O)[C@H](Cc1c[nH]cn1)NC(=O)[C@H](CCC(=O)O)NC(=O)[C@H](Cc1ccc2ccccc2c1)NC(=O)[C@H]1CC[C@H](CNC(=O)CN2CCN(CC(=O)O)CCN(CC(=O)O)CCN(CC(=O)O)CC2)CC1)C(=O)O)C(=O)O [PS1, EuK-(HE)3-NaI-ChX-DOTA] ({DOTA-Trx}-[2Nal]EHEHEH-EuK)",0.314 ± 0.024 %Binding / %Internalization,0.069 ± 0.012 %Binding / %Internalization,0.66 ± 0.14 %Binding / %Internalization,1.15 ± 0.17 %Binding / %Internalization,0.35 ± 0.3 %Binding / %Internalization,1.09 ± 0.34 %Binding / %Internalization
1.64 ± 0.1,1.01 ± 0.09,0.11 ± 0.02,0.11 ± 0.01,0.78 ± 0.05,0.74 ± 0.06,-3.4 ± 0.3,,,"O=C(O)CC[C@H](NC(=O)N[C@@H](CCCCNC(=O)[C@H](Cc1ccc2ccccc2c1)NC(=O)[C@H](Cc1c[nH]cn1)NC(=O)[C@H](CCC(=O)O)NC(=O)[C@H](Cc1c[nH]cn1)NC(=O)[C@H](CCC(=O)O)NC(=O)[C@H](Cc1c[nH]cn1)NC(=O)[C@H](CCC(=O)O)NC(=O)[C@H]1CC[C@H](CNC(=O)CN2CCN(CC(=O)O)CCN(CC(=O)O)CCN(CC(=O)O)CC2)CC1)C(=O)O)C(=O)O [PS2, EuK-NaI-(HE)3-ChX-DOTA] ({DOTA-Trx}-EHEHEH[2Nal]-EuK)",0.21 ± 0.036 %Binding / %Internalization,0.183 ± 0.024 %Binding / %Internalization,0.55 ± 0.04 %Binding / %Internalization,1.01 ± 0.14 %Binding / %Internalization,0.34 ± 0.24 %Binding / %Internalization,0.83 ± 0.27 %Binding / %Internalization
3.81 ± 0.15,2.77 ± 0.2,0.11 ± 0.02,0.1 ± 0.03,1.15 ± 0.04,1.07 ± 0.09,-3.9 ± 0.3,,,"O=C(O)CC[C@H](NC(=O)N[C@@H](CCCCNC(=O)[C@H](Cc1ccc2ccccc2c1)NC(=O)[C@H]1CC[C@H](CNC(=O)[C@H](CCC(=O)O)NC(=O)[C@H](Cc2c[nH]cn2)NC(=O)[C@H](CCC(=O)O)NC(=O)[C@H](Cc2c[nH]cn2)NC(=O)[C@H](CCC(=O)O)NC(=O)[C@H](Cc2c[nH]cn2)NC(=O)CN2CCN(CC(=O)O)CCN(CC(=O)O)CCN(CC(=O)O)CC2)CC1)C(=O)O)C(=O)O [PS4, EuK-NaI-ChX-(EH)3-DOTA] ({DOTA}-HEHEHE[Trx][2Nal]-EuK)",0.149 ± 0.047 %Binding / %Internalization,0.080 ± 0.009 %Binding / %Internalization,0.81 ± 0.29 %Binding / %Internalization,1.43 ± 0.12 %Binding / %Internalization,0.66 ± 0.68 %Binding / %Internalization,1.35 ± 0.21 %Binding / %Internalization
8.13 ± 1.31,1.09 ± 0.06,0.21 ± 0.03,0.06 ± 0.02,0.65 ± 0.04,0.37 ± 0.05,-3.7 ± 0.6,,,"O=C(O)CC[C@H](NC(=O)N[C@@H](CCCCNC(=O)[C@H](Cc1ccc2ccccc2c1)NC(=O)[C@H](Cc1c[nH]cn1)NC(=O)[C@H](Cc1c[nH]cn1)NC(=O)[C@H](Cc1c[nH]cn1)NC(=O)[C@H]1CC[C@H](CNC(=O)CN2CCN(CC(=O)O)CCN(CC(=O)O)CCN(CC(=O)O)CC2)CC1)C(=O)O)C(=O)O [PS10, EuK-NaI-H3-ChX-DOTA] ({DOTA-Trx}-HHH[2Nal]-EuK)",,,,,,

# More lines, now with the values behind:
Compound,SUV at 1 h (in vivo; SUV kidneys) [SUV],SUV at 2 h (in vivo; SUV kidneys) [SUV],SUV at 1 h (in vivo; SUV muscle) [SUV],SUV at 2 h (in vivo; SUV muscle) [SUV],SUV at 1 h (in vivo; SUV tumor) [SUV],SUV at 2 h (in vivo; SUV tumor) [SUV],logD [2],tissue to tissue ratio at 1 h (in vivo),tissue to tissue ratio at 2 h (in vivo),Internalization Block [1],Surface Binding Block [1],Internalization [1],Surface Binding [1],Specific Internalization [1],Specific Surface Binding [1]
"O=C(O)CC[C@H](NC(=O)N[C@@H](CCCCNC(=O)[C@H](CCC(=O)O)NC(=O)[C@H](CCC(=O)O)NC(=O)[C@H](CCC(=O)O)NC(=O)[C@H](Cc1ccc2ccccc2c1)NC(=O)[C@H]1CC[C@H](CNC(=O)CN2CCN(CC(=O)O)CCN(CC(=O)O)CCN(CC(=O)O)CC2)CC1)C(=O)O)C(=O)O [PS6, EuK-E3-NaI-ChX-DOTA] ({DOTA-Trx}-[2Nal]EEE-EuK)",1.53 ± 0.08,0.4 ± 0.05,0.11 ± 0.02,0.11 ± 0.02,0.69 ± 0.07,0.85 ± 0.08,-3.1 ± 0.3,,,,,,,,
"O=C(O)CC[C@H](NC(=O)N[C@@H](CCCCNC(=O)[C@H](Cc1ccc2ccccc2c1)NC(=O)[C@H](CCC(=O)O)NC(=O)[C@H](CCC(=O)O)NC(=O)[C@H](CCC(=O)O)NC(=O)[C@H]1CC[C@H](CNC(=O)CN2CCN(CC(=O)O)CCN(CC(=O)O)CCN(CC(=O)O)CC2)CC1)C(=O)O)C(=O)O [PS7, EuK-NaI-E3-ChX-DOTA] ({DOTA-Trx}-EEE[2Nal]-EuK)",1.6 ± 0.12,0.59 ± 0.06,0.09 ± 0.01,0.12 ± 0.02,0.71 ± 0.05,0.56 ± 0.08,-3.3 ± 0.1,,,,,,,,
"O=C(O)CC[C@H](NC(=O)N[C@@H](CCCCNC(=O)[C@H](Cc1ccc2ccccc2c1)NC(=O)[C@H]1CC[C@H](CNC(=O)[C@H](CCC(=O)O)NC(=O)[C@H](CCC(=O)O)NC(=O)[C@H](CCC(=O)O)NC(=O)CN2CCN(CC(=O)O)CCN(CC(=O)O)CCN(CC(=O)O)CC2)CC1)C(=O)O)C(=O)O [PS8, EuK-NaI-ChX-E3-DOTA] ({DOTA}-EEE[Trx][2Nal]-EuK)",3.89 ± 0.65,2.7 ± 0.89,0.08 ± 0.02,0.11 ± 0.02,1.32 ± 0.08,0.86 ± 0.39,-3 ± 0.1,,,,,,,,
"O=C(O)CC[C@H](NC(=O)N[C@@H](CCCCNC(=O)[C@H](Cc1c[nH]cn1)NC(=O)[C@H](Cc1c[nH]cn1)NC(=O)[C@H](Cc1c[nH]cn1)NC(=O)[C@H](Cc1ccc2ccccc2c1)NC(=O)[C@H]1CC[C@H](CNC(=O)CN2CCN(CC(=O)O)CCN(CC(=O)O)CCN(CC(=O)O)CC2)CC1)C(=O)O)C(=O)O [PS9, EuK-H3-NaI-ChX-DOTA] ({DOTA-Trx}-[2Nal]HHH-EuK)",0.98 ± 0.09,0.74 ± 0.09,0.082 ± 0.002,0.07 ± 0.03,0.21 ± 0.05,0.12 ± 0.03,-3.2 ± 0.1,,,,,,,,
"O=C(O)CC[C@H](NC(=O)N[C@@H](CCCCNC(=O)[C@H](Cc1ccc2ccccc2c1)NC(=O)[C@H]1CC[C@H](CNC(=O)[C@H](Cc2c[nH]cn2)NC(=O)[C@H](Cc2c[nH]cn2)NC(=O)[C@H](Cc2c[nH]cn2)NC(=O)CN2CCN(CC(=O)O)CCN(CC(=O)O)CCN(CC(=O)O)CC2)CC1)C(=O)O)C(=O)O [PS11, EuK-NaI-ChX-H3-DOTA] ({DOTA}-HHH[Trx][2Nal]-EuK)",1.24 ± 0.08,0.77 ± 0.13,0.11 ± 0.02,0.1 ± 0.03,0.82 ± 0.07,0.88 ± 0.09,-3.6 ± 0.1,,,,,,,,
"O=C(O)CC[C@H](NC(=O)N[C@@H](CCCCNC(=O)[C@H](CCC(=O)O)NC(=O)[C@H](CCC(=O)O)NC(=O)[C@H](CCC(=O)O)NC(=O)[C@H](Cc1ccc2ccccc2c1)NC(=O)[C@H]1CC[C@H](CNC(=O)CN2CCN(CC(=O)O)CCN(CC(=O)O)CCN(CC(=O)O)CC2)CC1)C(=O)O)C(=O)O [[^68Ga]Ga-PS6, metal not drawn] ({DOTA-Trx}-[2Nal]EEE-EuK)",,,,,,,,0.44 ± 0.15,2.15 ± 0.22,,,,,,
